The values below come from patent US20170333532A1, “ADP'ASE-ENHANCED APYRASE THERAPY FOR WOUNDS, MICROBIAL INFECTION, SEPSIS, AND HETEROTOPIC OSSIFICATION” (APT THERAPEUTICS, INC, priority 2014, published 2017).

One assay concerns A. baumannii ATCC DMCI. Put plainly: Mouse model for wound infection and healing (burn), A. baumannii ATCC DMCI, treatment 24 hours after inoculation. It counts as in vivo. To be noted: wounds treated 24 hours after inoculation, skin collected 48 hours after the burn. As for the experimental part:
e.g., in a mouse model for wound infection and healing. After a burn, A. baumannii ATCC DMCI is inoculated on skin. After 24 hours, the wounds are treated with Apyrase Agent alone, colistin alone, or Apyrase Agent and colistin in combination. Skin samples are collected after another 24 hours and the CFU/g skin of A baumannii ATCC DMCI is determined. […] In the presence of Apyrase Agent or colistin alone, A. baumannii is detected at amounts of approximately 10^8 CFU/g of skin.

Assay [1] deals with Burkholderia vietnamiensis AU 10214. Put plainly: Killing of Burkholderia vietnamiensis AU 10214 by colistin with Apyrase Agent, CFU count. It is filed as cell-based. Conditions: colistin at less than 20 μg/ml, with Apyrase Agent 2 U/ml or alone. How it is done: In this Example (and in subsequent Examples), the colistin is colistin sulfate salt, catalog number C4461 from Sigma-Aldrich (St. Louis, Mo.) and the apyrase is catalog number M0393L from New England BioLabs Inc. (Ipswich, Mass.).
Burkholderia vietnamiensis AU 10214 is grown in the presence of combinations of 0 and 2 U/ml of Apyrase Agent and approximately 0 to 20 μg/ml of colistin. After incubation, the numbers of viable cells are determined by counting the colony forming units (CFU) on the plate (data provided as CFU/ml). Apyrase Agent improves the efficiency of killing Burkholderia vietnamiensis AU 10214 by colistin. Apyrase Agent increases the effectiveness of colistin at less than 20 μg/ml such that less than 10 to 100 CFU/ml are detected relative to greater than 10^5 to 10^6 in the presence of colistin alone at the same concentrations.

Regarding colistin sulfate salt, the “A. baumannii detected on skin” value with A. baumannii ATCC DMCI is “approximately 10^8 CFU/g of skin”. The “numbers of viable cells (CFU)” value in assay [1] is on record as 10^5 to 10^6 CFU/ml.
